Reference: US12629415B2, “Vaccine adjuvants” (THE PROVOST, FELLOWS, FOUNDATION SCHOLARS, AND THE OTHER …, priority 2018, dated 2026)
Entries after “also recorded” stand apart in the source; their conditions may differ.

Columns and labels:
[1] = system: PBMCs or CBMCs; assay: CXCL10 (IP-10) ELISA; assay type: cell-based, human; settings: CBMCs compared with PBMCs
Method: (§1) Poly(I:C) (5 μg/ml) (Invivogen), Poly(dA:dT) (5 μg/ml) (Sigma-Aldrich), 2′3′ cGAMP (10 μg/ml), 5′ triphosphate double stranded RNA (5′ ppp dsRNA) (2.5 μg/ml) and HSV-60 (2 μg/ml) (all from Invivogen) were transfected into PBMCs or CBMCs using TransIT-X2 (Mirus).
(§2) Measurement of cytokines—HEK Blue TNFα/IFNα/β Assays were performed as per the manufacturer's (Invivogen) instructions using Quanti-Blue Detection Reagent. SEAP levels were determined using a spectrophotometer plate reader at 630 nm. IFNα (3425-1H-6, Mabtech) and IP-10 (DY266, R&D Systems) were detected by sandwich ELISA. IFNα ELISA used pan specific IFNα antibodies, which allows detection of IFNα subtypes 1/13, 2, 4, 5, 6, 7, 8, 10, 14, 16 and 17. BioLegend LEGENDplex™ Human Inflammation Panel (13-plex) was carried out as per manufacturer's (Biolegend) instructions to determine levels of IFNγ, IL-10, IL-12p70 and IL-23. A BD LSR Fortessa cell analyser was used to acquire samples and BioLegend LEGENDplex™ software was used for analysis.

[2] = system: bovine PBMCs; assay: Bovine IFN-γ ELISA on stimulated PBMCs; assay type: cell-based, cattle; settings: 72 hours; for IFN-γ secretion by ConA stimulated PBMCs from 2 month old calves: ConA 1 μg/ml, polydA:dT 1 μg/ml; for IFN-γ secretion by ConA stimulated bovine PBMCs: calves <1 year old, ConA 1 μg/ml with or without LPS 100 pg/ml; for IFN-γ secretion by PBMCs from neonatal calves, time course: same 5 calves from 1 to 5 months of age, ConA with or without LPS
Method: Bovine peripheral blood mononuclear cells were isolated from whole blood samples collected in 9m1 vacutainers containing Heparin anticoagulant. PBMCs were spun and separated using leucosep tubes (Cruinn) and a density gradient histopaque 1077 (Sigma-Aldrich) at a speed of 1200 g for 20 minutes. Red blood cell contamination was eliminated using sterile 0.25% sodium chloride (Baxter) as a lysis buffer. The cells were subsequently washed twice in PBS at a speed of 600 g for 10 minutes to remove impurities.
Cells were counted using a haemocytometer, microscope and trypan blue (Sigma Aldrich) and seeded at appropriate densities in tissue culture plates (Cruinn) containing media. The cells were incubated at 37° C. at 5% CO2 treated within hours of plating to avoid unwanted cell death.
When analysing the effects of IL-1β on T cell activation, cells were pre-treated with 250 μg/ml of IL-1 receptor antagonist (IL-1Ra) 40 minutes before stimulation with IL-1β (25 ng/ml). Cells were subsequently stimulated with concanavalin A (1 μg/ml) 1 hour after addition of IL-1β. Similarly, when analysing the effects of polydA:dT on T cell activation, cells were stimulated with polydA:dT (1 μg/ml) 1 hour before ConA treatment (1 μg/ml). LPS (100 pg/ml) primed cells were incubated with YVAD-FMK (10 μm), an inhibitor specific for caspase-1. After 40 minutes, the cells were stimulated with alum (50 μg/ml) for 24 hours and supernatants were then harvested and analysed by ELISA for IL-1β
Capture antibodies (50 μl/well), diluted in the appropriate buffers, were dispensed into the wells of high binding plates (Greiner Bio-One) and incubated overnight at room temperature or 4° C. For analysis of IL-17, the ELISA plates were pre-coated with capture antibody by the manufacturing before delivery. The wells were washed with PBS/Tween 3 times and the plates were then incubated with 150 μl of blocking buffer for 1 hour at room temperature. The plates were washed again before supernatant (neat or diluted) and recombinant standards were added for 1 hour at room temperature. Following this, the plates were washed and 50 μl of detection antibody was added to the wells for a period of 1 or 2 hours at room temperature. After washing, 50 μl diluted streptavidin-HRP was added to the plate for between 30 minutes and 1 hour. After the final wash, 50 μl of 3,3′-, 5,5′-Tetramethylbenzidine (TMB) substrate was added and the plates were incubated in the dark. The reaction was stopped by addition of 1M sulphuric acid and the absorbance readings were measured at 450 nm using a microtitre plate reader. The cytokine concentrations were calculated using a linear regression standard curve from recombinant cytokines of known concentration. Skanit™ software was used to estimate values.

[3] = system: mononuclear cells from cord blood, children's blood or adult blood; assay: HEK-Blue IFNα/β and TNFα assays on mononuclear cells of cord blood, children and adults; assay type: cell-based, human; settings: transfection 24 h, 4-24 months, 2-5 years, 6-11 years
From the text: Umbilical cord blood samples were obtained from term births following normal pregnancy, labour and delivery at National Maternity Hospital (NMH), Holles St, Dublin 2. […] Venous blood from infants, children and adolescents of various ages was collected during elective surgical procedures where no indication of infection was present (such as hydrocele repair, umbilical hernia repair, onychocryptosis, orchipexy repair) in Our Lady's Children's Hospital Crumlin (OLCHC), Dublin 12. […] Volumes drawn were age and weight dependent, according to standard, approved guidelines. Ethics approval was obtained from the Ethics Committees of NMH and OLCHC and informed consent was obtained from each subject or their parent/guardian. Adult blood samples were from healthy adults, supplied by the Irish Blood Transfusion Service. • Poly(I:C), Poly(dA:dT) and cGAMP were obtained from Invivogen • Poly (dA:dT) is a repetitive synthetic double-stranded DNA sequence of poly(dA-dT)-poly(dT-dA) http://www.invivopen.com/poly-dadt-naked • Poly (I:C) comprises long strands of inosine poly(I) homopolymer annealed to strands of cytidine poly(C) homopolymer http://www.invivogen.com/polyic-hmw. • cGAMP is cyclic [G(2′,5′)pA(3′,5′)p]; Formula: […], 2Na Methodology
Isolation of mononuclear cells and monocytes—Primary PBMCs or CBMCs were isolated from healthy human blood or cord blood. Monocytes were isolated by negative selection using Monocyte Isolation Kit II (Miltenyi). Monocyte purity was assessed using CD14 staining and was routinely 85-95%. Cells were cultured at 37° C., 5% CO2, 95% air in RPMI-1640, with stable 2.5 mM L-glutamine and 0.5 mM sodium pyruvate with 10% FBS (all from Sigma-Aldrich).
as §1, §2

[4] = system: PBMCs or CBMCs; assay: HEK-Blue TNFα assay on supernatants; assay type: cell-based, human; settings: CBMCs compared with PBMCs; 4, 8 or 24 hours
Method: as §1, §2

[5] = system: PBMCs or CBMCs; assay: IFNα sandwich ELISA on supernatants; assay type: cell-based, human; settings: CBMCs compared with PBMCs; 8 or 24 h
Method: as §1, §2

[6] = system: adult PBMCs or neonatal CBMCs; assay: HEK-Blue IFNα/β SEAP assay on supernatants of stimulated mononuclear cells; assay type: cell-based, human
Method: Isolation of mononuclear cells and monocytes—Primary PBMCs or CBMCs were isolated from healthy human blood or cord blood. Monocytes were isolated by negative selection using Monocyte Isolation Kit II (Miltenyi). […] Cells were cultured at 37° C., 5% CO2, 95% air in RPMI-1640, with stable 2.5 mM L-glutamine and 0.5 mM sodium pyruvate with 10% FBS (all from Sigma-Aldrich).
as §1, §2

poly(deoxyadenylic-thymidylic) acid [Poly(dA:dT)]
CXCL10 protein secretion [1]: no significant difference in the CXCL10 response between PBMCs or CBMCs
IFN-γ secretion by ConA stimulated PBMCs from 2 month old calves ([2]; listed as PolydA:dT): drives enhanced IFN-γ secretion in calves aged <1 year old
IFN-γ secretion by ConA stimulated PBMCs from 2 month old calves ([2]; listed as poly(dA:dT)): strongly enhanced IFN-γ production
IFN-γ secretion by ConA stimulated bovine PBMCs [2]: promotes type 1 interferon dependent enhancement of interferon gamma production in PBMCs
IFN-γ secretion by ConA stimulated bovine PBMCs ([2]; listed as Poly (deoxyadenylic-thymidylic) acid): promotes type 1 interferon dependent enhancement of interferon gamma production in PBMCs
IFN-γ secretion by ConA stimulated bovine PBMCs ([2]; listed as poly (dA:dT)): strongly enhanced IFN-γ production by PBMCs from adult (8 months old) animals
IFN-γ secretion by ConA stimulated bovine PBMCs ([2]; listed as polydA:dT): increase in IFN-γ secretion; also recorded: increased capacity to secrete IFN-γ in response to polydA:dT, although the difference was only significant when cells were primed with LPS
IFN-γ secretion by PBMCs from neonatal calves, time course ([2]; listed as PolydA:dT): drives enhanced IFN-γ by cells from neonatal calves
IFN-γ secretion by PBMCs from neonatal calves, time course ([2]; listed as polydA:dT): overcomes the deficiency in interferon gamma production in neonatal cattle; also recorded: significantly enhanced in response to polydA:dT; also recorded: most evident in the first 2 months of life after which the enhancement was not statistically significant; also recorded: significant increase in IFN-γ secretion at 1 and 2 months in the presence or absence of LPS; also recorded: ability to drive enhanced IFN-γ from PBMCs of calves aged 1-2 months
TNFα production across age groups [3]: maintenance of cord blood responsiveness to CNA was also observed for both Poly(I:C) and Poly(dA:dT)-induced TNFα production to the age of 24 months
production of type I IFN across age groups [3]: maintained throughout childhood; also recorded: maintained across all age groups
TNFα production [4]: significantly more TNFα production from neonatal cells than from adult cells
IFNα secretion (ELISA) [5]: equivalent or enhanced CNA sensor responses in neonates compared to adults
innate immune response in neonatal and/or paediatric blood ([6]; compared with adult blood, summary statement): robust innate immune response in neonatal and/or paediatric blood
type I IFN (IFNα/β) production ([6]; neonatal CBMCs compared with adult PBMCs, stimulation 4, 8 or 24 h): no inhibition of type I IFN production in CBMCs when compared to PBMCs
